Data reported in publication PMC9960274, “Peptidic Inhibitors and a Fluorescent Probe for the Selective Inhibition and Labelling of Factor XIIIa Transglutaminase” (Molecules, 2023).
Entries after “also recorded” stand apart in the source; their conditions may differ. Where two headings read alike, the source gives them in different places. Blank lines part the entries; values can stand above or below the compound they belong to. Starred links: 1 amine or outer side, 2 acyl side, 3 side chain; linkers in the order of their positions; H or OH if unused. Non-standard residues stand in square brackets, D forms with d. Residues, ends and D or L forms follow the SMILES beside them. *: point of attachment. RhodamineB = CCN(CC)c1ccc2c(-c3ccccc3C(=O)*)c3ccc(=[N+](CC)CC)cc-3oc2c1; X1 = COC(=O)/C=C/CC[C@H](N[*:1])C(=O)[*:2]; X2 = COC(=O)C=CCCC[C@H](N[*:1])C(=O)[*:2]; X3 = COC(=O)C=CC[C@H](N[*:1])C(=O)[*:2]; Nle = CCCC[C@H](N)C(=O)O; Orn = NCCC[C@H](N)C(=O)O; Dab = NCC[C@H](N)C(=O)O; Acryloyl = C=CC(=O)*; Ahx = NCCCCCC(=O)O

Target: T1, Thrombin-activated human FXIIIa (Homo sapiens, UniProt P00488)
T1 construct: purchased Zedira GmbH T070
T1 sequence (P00488 39-732 limits assumed): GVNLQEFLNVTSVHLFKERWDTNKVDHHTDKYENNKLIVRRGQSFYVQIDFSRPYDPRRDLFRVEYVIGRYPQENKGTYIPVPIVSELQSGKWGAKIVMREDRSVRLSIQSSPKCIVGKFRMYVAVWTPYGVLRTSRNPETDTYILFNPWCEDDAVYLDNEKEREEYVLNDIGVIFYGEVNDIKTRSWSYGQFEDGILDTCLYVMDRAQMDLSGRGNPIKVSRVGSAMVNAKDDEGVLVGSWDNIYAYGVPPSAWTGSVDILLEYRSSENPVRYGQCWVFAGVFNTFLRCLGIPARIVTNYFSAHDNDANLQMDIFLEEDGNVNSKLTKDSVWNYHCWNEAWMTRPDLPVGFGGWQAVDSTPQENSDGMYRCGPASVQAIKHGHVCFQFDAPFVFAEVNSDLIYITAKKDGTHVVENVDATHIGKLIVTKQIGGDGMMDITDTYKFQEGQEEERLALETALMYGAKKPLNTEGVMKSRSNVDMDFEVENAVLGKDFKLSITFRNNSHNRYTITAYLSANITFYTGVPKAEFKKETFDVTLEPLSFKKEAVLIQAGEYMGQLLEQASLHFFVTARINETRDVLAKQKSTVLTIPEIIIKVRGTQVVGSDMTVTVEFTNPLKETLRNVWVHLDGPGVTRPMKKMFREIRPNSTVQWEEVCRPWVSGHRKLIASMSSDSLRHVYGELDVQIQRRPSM
Test: Fluorescence-quenched A101 isopeptidase assay of FXIIIa inhibition kinetics
Type: biochemical
Conditions: for FXIIIa Inh. Mode: Rev = reversible, Irrev = irreversible, None = no inhibition detected up to 200 μM; for Selectivity: isozyme favoured, FXIIIa vs TG2, FXIIIa as the favoured isozyme; for selectivity for FXIIIa over TG2: from kinact/KI against FXIIIa and TG2
Protocol: All inhibitors synthesised herein were evaluated for inhibition against FXIIIa, using the fluorescence-quenched A101 isopeptidase assay, and against TG2, using the colorimetric AL5 transamidase assay. The assay substrates A101 and AL5 both present labile bonds that are cleaved by the activities of their corresponding transglutaminases, resulting in the release of a fluorophore or chromophore moiety, respectively. The rate of consumption of these assay substrates, indicated by increases in fluorescence or absorbance over time, can be detected for measuring enzyme activity. Assays were run in duplicate at constant reporter substrate concentration with varying concentrations of inhibitor. The type of inhibition was determined through visual inspection of the fluorescence-time curvature; termination of the enzymatic reaction with the substrate at a plateau lower than the no-inhibitor positive control is indicative of irreversible inhibition. On the other hand, convergence to a common plateau indicates reversible inhibition.
Irreversibility was tested further through substrate spike experiments. As shown in Supplementary Materials Figures S1–S3, an additional substrate was added to inhibited and uninhibited enzyme reactions after the completion of the positive control reaction. […] Analysis was carried out through corrected Dixon modelling in the case of reversible kinetics, to obtain Ki values (Figure 5B), and hyperbolic saturation modelling was used to obtain kinact and KI for inhibitors showing irreversibility (Figure 5E). For cases in which the tested inhibitor concentrations were not high enough to reach saturation, a linear regression provided an estimate of the inhibitor’s kinact/KI ratio (Figure 5D). Further details concerning data collection and analysis are provided in the Materials and Methods section.
A previously reported fluorescence-quenched isopeptidase assay using the commercially available substrate A101 (Zedira GmbH, Darmstadt, Germany) was employed for the determination of FXIIIa inhibition kinetics. All assays were performed at 37 °C on 96-well plates, with fluorescence (excitation at 313 nm, emission at 418 nm) measured continuously using a BioTek Synergy 4 plate reader. For each inhibitor, duplicate trials were run in parallel at 4 inhibitor concentrations, along with duplicate positive controls (no inhibitor) and negative controls (no enzyme and no inhibitor). First, 125 μL of aqueous buffer 1 (111 mM Tris, 16.7 mM CaCl2, 333 mM NaCl, pH 7.5) and 18 μL of aqueous buffer 2 (55.6 mM TCEP, 149 mM H-Gly-OMe, pH 7.5) were added to each well, along with 5 μL of A101 stock solution (4000 μM in DMSO). Next, the appropriate amount of the desired inhibitor, dissolved in DMSO, was added, in addition to the amount of distilled water necessary to reach a total volume of 180 μL in each well. Negative controls were diluted to a final volume of 200 μL. Thrombin-activated human FXIIIa (T070, Zedira GmbH, Darmstadt, Germany), stored at −80 °C in 20-μL aliquots (1 mg/mL enzyme) of storage buffer (50.0 mM Tris, 1.00 mM TCEP, 150 mM NaCl, pH 7.5) was warmed to room temperature and diluted to 0.0741 mg/mL through the addition of 250 μL of storage buffer. The diluted enzyme solution was then aliquoted into 10 separate PCR tubes. The assay plate and enzyme tubes were subsequently incubated at 37 °C for 10 min. After the completion of the incubation period, 20 μL of diluted FXIIIa solution was added from each PCR tube to all wells in the plate excluding the negative controls using a multi-channel pipette. This produced a final volume of 200 μL per well, with final reaction conditions of pH 7.5, 74.4 mM Tris, 10.4 mM CaCl2, 223 mM NaCl, 5.10 mM TCEP, 13.4 mM H-Gly-OMe, 100 μM A101, and 7.41 μg/mL (94 nM) FXIIIa. The range of inhibitor concentrations tested spanned from 1 to 200 μM, and the final DMSO concentration in the reaction mixture was kept below 10% v/v. […]

[1] = peptidic series, corrected Dixon plot, α = 13.5, read-out: FXIIIa Ki or KI: Ki of reversible inhibitors
[2] = small molecule series, reversible, Dixon plot, Interference = data afflicted by fluorescence interference
[3] = small molecule series, reversible, Dixon plot, Interference = data afflicted by fluorescence interference, read-out: FXIIIa Ki
[4] = dansyl and sulfonyl-naphthalene compounds, data afflicted by fluorescence interference and set aside, read-out: FXIIIa apparent Ki (interference)

FXIIIa Inh. Mode: Rev
Selectivity: FXIIIa
Ki [1]: 135 ± 16 µM
Compound: C=CC(=O)NCCC[C@H](NC(=O)[C@@H](CC(=O)O)NC(C)=O)C(=O)N[C@@H](CCCC)C(=O)N[C@@H](CCCC)C(=O)N[C@@H](CC(C)C)C(=O)N1CCC[C@H]1C(=O)N[C@@H](Cc1c[nH]c2ccccc12)C(=O)N1CCC[C@H]1C(=O)O [Compound 13] (Ac-[dD][Orn](Acryloyl)[Nle][Nle]LPWP-OH)

FXIIIa Inh. Mode: weak reversible inhibition and Rev
Selectivity: FXIIIa
Ki [1]: 53 ± 12 µM
Compound: CCCC[C@H](NC(=O)[C@H](CC=CC(=O)OC)NC(=O)[C@@H](CC(=O)O)NC(C)=O)C(=O)N[C@@H](CCCC)C(=O)N[C@@H](CC(C)C)C(=O)N1CCC[C@H]1C(=O)N[C@@H](Cc1c[nH]c2ccccc12)C(=O)N1CCC[C@H]1C(=O)O [Compound 45] (Ac-[dD][X3][Nle][Nle]LPWP-OH)

Ki [3]: 249 ± 69.3 µM
Compound: C=CC(=O)NCC(NC(=O)CC(=O)O)C(=O)N1CCN(C(=O)c2cccc3ccccc23)CC1 (centres unmarked) [Compound 72]

FXIIIa Ki [2]: Interference *
Compound: C=CC(=O)NCC(NC(=O)C1(C(=O)O)CC1)C(=O)N1CCN(S(=O)(=O)c2cccc3c(N(C)C)cccc23)CC1 [Compound 74, Acid-Cyclopropyl-L-Dap(Acryl)-Piperazine-Dansyl]

FXIIIa Ki [2]: Interference *
Compound: C=CC(=O)NCC(NC(=O)CCC(=O)O)C(=O)N1CCN(S(=O)(=O)c2cccc3c(N(C)C)cccc23)CC1 [Compound 75, Succinyl-L-Dap(Acryl)-Piperazine-Dansyl]

Ki [4]: 64.3 ± 5.1 µM
FXIIIa Ki [2]: Interference *
Compound: C=CC(=O)NCC(NC(=O)CCC(=O)O)C(=O)N1CCN(S(=O)(=O)c2cccc3ccccc23)CC1 [Compound 76, Succinyl-L-Dap(Acryl)-Piperazine-Sulfonyl-Naphthalene]

Ki [3]: 108 ± 19.1 µM
Compound: C=CC(=O)NC(CNC(=O)CCC(=O)O)C(=O)N1CCN(C(=O)c2cccc3ccccc23)CC1 (centres unmarked) [Compound 84]

Ki [3]: 131 µM
Compound: COC(=O)C=CCCC(NC(=O)CCC(=O)O)C(=O)N1CCN(C(=O)c2cccc3ccccc23)CC1 (centres unmarked) [Compound 87]

Ki [3]: 265 ± 46.8 µM
Compound: COC(=O)C=CCCC(NC(=O)c1ccccc1C(=O)O)C(=O)N1CCN(C(=O)c2cccc3ccccc23)CC1 (centres unmarked) [Compound 88]

Continued, compound first:

Compound: C=CC(=O)NCC[C@H](NC(=O)[C@@H](CC(=O)O)NC(C)=O)C(=O)N[C@@H](CCCC)C(=O)N[C@@H](CCCC)C(=O)N[C@@H](CC(C)C)C(=O)N1CCC[C@H]1C(=O)N[C@@H](Cc1c[nH]c2ccccc12)C(=O)N1CCC[C@H]1C(=O)O [Compound 12, Ac-D-Asp-Dab(Acrylamide)-Nle-Nle-Leu-Pro-Trp-Pro-OH] (Ac-[dD][Dab](Acryloyl)[Nle][Nle]LPWP-OH)
FXIIIa Inh. Mode: Rev
Selectivity: FXIIIa
Ki [1]: 193 ± 20 µM

Compound: C=CC(=O)NCCCC[C@H](NC(=O)[C@@H](CC(=O)O)NC(C)=O)C(=O)N[C@@H](CCCC)C(=O)N[C@@H](CCCC)C(=O)N[C@@H](CC(C)C)C(=O)N1CCC[C@H]1C(=O)N[C@@H](Cc1c[nH]c2ccccc12)C(=O)N1CCC[C@H]1C(=O)O [Compound 14] (Ac-[dD]K(Acryloyl)[Nle][Nle]LPWP-OH)
FXIIIa Inh. Mode: Rev
Selectivity: FXIIIa
Ki [1]: 125 ± 20 µM

Compound: CCCC[C@H](NC(=O)[C@H](CCCC=CC(=O)OC)NC(=O)[C@@H](CC(=O)O)NC(C)=O)C(=O)N[C@@H](CCCC)C(=O)N[C@@H](CC(C)C)C(=O)N1CCC[C@H]1C(=O)N[C@@H](Cc1c[nH]c2ccccc12)C(=O)N1CCC[C@H]1C(=O)O [Compound 47] (Ac-[dD][X2][Nle][Nle]LPWP-OH)
FXIIIa Inh. Mode: reversible and highly potent reversible FXIIIa inhibition and Rev
Selectivity: Irrev TG2
Ki [1]: 0.0941 ± 0.0105 µM

Compound: C=CC(=O)NCC(NC(=O)CC(=O)O)C(=O)N1CCN(S(=O)(=O)c2cccc3c(N(C)C)cccc23)CC1 (centres unmarked) [Compound 71]
FXIIIa Ki [2]: Interference *

Compound: C=CC(=O)NCC(NC(=O)C1(C(=O)OC)CC1)C(=O)N1CCN(S(=O)(=O)c2cccc3c(N(C)C)cccc23)CC1 (centres unmarked) [Compound 73]
FXIIIa Ki [2]: Interference *

Compound: C=CC(=O)NCC(NC(=O)CCC(=O)O)C(=O)N1CCN(C(=O)c2cccc3ccccc23)CC1 [Compound 77, Succinyl-L-Dap(Acryl)-Piperazine-Naphthoyl]
Ki [3]: 69 ± 4.1 µM

Compound: C=CC(=O)NCC(NS(=O)(=O)CC(=O)O)C(=O)N1CCN(S(=O)(=O)c2cccc3c(N(C)C)cccc23)CC1 (centres unmarked) [Compound 79]
Ki [4]: 26.7 ± 1.3 µM
FXIIIa Ki [2]: Interference *

Compound: CCCC[C@H](NC(=O)[C@H](CC/C=C/C(=O)OC)NC(=O)[C@@H](CC(=O)O)NC(=O)CCCCCNC(=O)[C@@H]1CCCN1C(=O)c1ccccc1-c1c2ccc(=[N+](CC)CC)cc-2oc2cc(N(CC)CC)ccc12)C(=O)N[C@@H](CCCC)C(=O)N[C@@H](CC(C)C)C(=O)N1CCC[C@H]1C(=O)N[C@@H](Cc1c[nH]c2ccccc12)C(=O)N1CCC[C@H]1C(=O)O [Compound 93] (RhodamineB-P[Ahx][dD][X1][Nle][Nle]LPWP-OH)
selectivity for FXIIIa over TG2: around 6.5 fold
selectivity for FXIIIa over TG2 (listed as KM93): 6.5 fold
kinact/KI (irreversible inhibitors, saturation fit or linear regression): 2120 M⁻¹ s⁻¹

Compound: Ac-D-Asp-Dap(Acrylamide)-Nle-Nle-Leu-Pro-Trp-Pro-OH [Compound 11]
FXIIIa Inh. Mode: complete loss of inhibition; also recorded: no inhibition; also recorded: None *
